# Data published in PubChem BioAssay AID1963597 (National Center for Advancing Translational Sciences (NCATS), 2024).
# System: human liver microsomes, metabolic stability half-life
# Experiment: NCATS Human Liver Microsomal (HLM) Stability Profiling
# Conditions: higher = more stable; screened at 1 µM (by protocol)
# In short: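 Half-life derived from parent loss over 0–60 min (0, 5, 10, 15, 30, 60 min) at 37 °C. Incubations: 0.5 mg/mL microsomes, 1 µM test article, NADPH regeneration, pH 7.4 phosphate; quenched in acetonitrile containing albendazole, analysed by MS.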
row,Compound,half-life
1,COc1ccc2c(c1)c(CC(=O)OCC(=O)O)c(C)n2C(=O)c1ccc(Cl)cc1,> 120 min
2,O=C(O)c1ccc(-c2ccc(N3CCCCCC3)nc2)cc1,> 120 min
3,Cc1cnc(Nc2cccc(CN3CCOCC3)c2)nc1Nc1cccc(S(=O)(=O)NC(C)(C)C)c1,19.5 min
4,C[C@@H]1CCC[C@H](C)N1CCCC(O)(c1ccccc1)c1ccccn1 (stereo partly drawn),> 120 min
5,Cc1ccc(C2=Nc3ccccc3N(CC(=O)Nc3ccccc3F)C(=O)C2)cc1C,6.23 min
6,CN(C)CCCO[C@H]1C([C@H](O)CO)O[C@@H]2OC(C)(C)O[C@@H]21 (stereo partly drawn),78.9 min
7,COc1ccncc1C(=O)NC(=O)Nc1ccc(-c2ccccc2)c(C(F)(F)F)c1,> 120 min
8,O=C(N[C@H]1CN2CCC1CC2)c1cc2cccc(Cl)c2s1,> 120 min
9,OCCCNc1cc(-c2ccnc(Nc3cccc(Cl)c3)n2)ccn1,24.5 min
10,CC(C)COC[C@H](CN(Cc1ccccc1)c1ccccc1)N1CCCC1,21.1 min
11,COc1ccc(S(=O)(=O)Nc2cc(Cl)cc(Cl)c2OC)cc1N1CCNCC1,> 120 min
12,Nc1ccc(N=Nc2ccccc2)c(N)n1,7.45 min
13,O=C1COc2nccc(-c3ccccc3F)c2CN1Cc1cc(C(F)(F)F)cc(C(F)(F)F)c1,2.5 min
14,O=C(O)c1ccc(OCCN2CCCCC2)cc1,> 120 min
15,N#CC1C(=O)Nc2scc(-c3ccc(-c4ccccc4O)cc3)c2C1=O (stereo not drawn),> 120 min
16,Oc1cccc(O)c1O,> 120 min
17,CC1CC(C)C(=O)C(C(O)CC2CC(=O)NC(=O)C2)C1 (stereo not drawn),> 120 min
18,Clc1ccc(C2(c3ccc(-c4cn[nH]c4)cc3)CCNCC2)cc1,> 120 min
19,CCN1CCN(C(=O)c2cc(-c3ccccc3OC)c3nncn3n2)CC1,54.7 min
20,O=C(O)c1ccc2[nH]cc(CCCCN3CC=C(c4ccccc4)CC3)c2c1,> 120 min
21,COc1cc(C(=S)N2CCOCC2)cc(OC)c1OC,> 120 min
22,CC(=O)Nc1ccc(OC[C@@H](O)CNC(C)C)cc1,> 120 min
23,Nc1ccccc1NC(=O)c1ccc(CNc2nccc(-c3cccnc3)n2)cc1,> 120 min
24,CC[C@]1(O)C[C@@H]2CN(CCc3c([nH]c4ccccc34)[C@@](C(=O)OC)(c3cc4c(cc3OC)N(C)[C@H]3[C@@](O)(C(=O)OC)[C@H](OC(C)=O)[C@]5(CC)C=CCN6CC[C@]43[C@@H]65)C2)C1,54.6 min
25,CCCCCCCCC=CCCCCCCCC(=O)NCCOC(=O)CC(C(=O)O)S(=O)(=O)O (stereo not drawn),> 120 min
26,CCC(=O)N1CCC(n2nccc2NC(=O)Nc2ccccc2Cl)CC1,89.7 min

row,Compound,half-life
1,CC[C@]1(C2=NCCN2)Cc2ccccc2O1,> 120 min
2,CC(C)(C)c1ccc(C(=O)CCCCl)cc1,3.84 min
3,CN1CCC2=C(C1)c1ccccc1Cc1ccccc12,95 min
4,COc1ccc(Nc2cc(-c3cnc(N)nc3)nc(N3CCOCC3)n2)cn1,39.3 min
5,COc1ccc(-c2oc3ncn4nc(COc5c(C)cccc5C)nc4c3c2-c2ccc(OC)cc2)cc1,13.2 min
6,O=C(O)c1ccc(CN2CC(COc3ccccc3)C3(C2)CN(c2ccccc2)C3)cc1 (stereo not drawn),64.8 min
7,COc1ccc(C(=O)n2c(C)c(Cc3cccc(O[C@@H](C)C(=O)O)c3)c3cc(OC(F)(F)F)ccc32)cc1,> 120 min
8,Cc1cc(C(C)Nc2ccccc2)c2nc(N3CCOCC3)cc(=O)n2c1 (stereo not drawn),17.2 min
9,CC1=C2[C@H]3OC(=O)[C@@H](C)[C@@H]3CC[C@@]2(C)C=CC1=O,> 120 min
10,CCOc1ccccc1NC(=O)CSc1nc2ccccc2c2nc(CCn3cncc3C)nn12,5.36 min
11,CN1CC(=O)N/C1=N/C(=O)Nc1cccc(Cl)c1,24.1 min
12,CCC(C(=O)O)c1ccc(N2Cc3ccccc3C2=O)cc1 (stereo not drawn),> 120 min
13,Cn1c(=O)c2c(nc(CN3CCN(C(=O)C4CC4)CC3)n2Cc2ccccc2Cl)n(C)c1=O,24.1 min
14,c1ccc(OCc2ccc(CCCN3CCOCC3)cc2)cc1,26.7 min
15,Clc1ccc2c(c1)Nc1ccccc1S2,6.28 min
16,COCCOc1nc(N)c2[nH]c(=O)n(Cc3ccc(C(=O)O)cc3)c2n1,> 120 min
17,C[C@@H](N)[C@@H](O)c1ccccc1,92.4 min
18,O=C1CN2CCOC2(c2ccccc2Cl)c2cc(Cl)ccc2N1 (stereo not drawn),4.56 min
19,NC(=O)N1c2ccccc2C=Cc2ccccc21,> 120 min
20,COP(=O)(OC)Oc1ccc([N+](=O)[O-])cc1,13.3 min
21,O=C(Cn1cnc2onc(-c3ccc(F)cc3)c2c1=O)Nc1cccc(C(F)(F)F)c1,40.4 min
22,C1N2CN3CN1CN(C2)C3,30.5 min
23,CCCNC(=O)C1CCC(Cn2c(=O)c3sccc3n(CC(=O)NCc3ccccc3)c2=O)CC1 (stereo not drawn),11.2 min
24,CCC1=c2cc(OC(=O)N3CCC(N4CCCCC4)CC3)ccc2=NC2=C3C=C4C(COC(=O)[C@]4(O)CC)C(=O)N3CC21 (stereo partly drawn),> 120 min
25,Cc1c(C)n(Cc2ccccc2)c2ccc(C(=O)OCCN(C)C)cc12,11.1 min
26,C#Cc1cccc(Nc2ncnc3cc(OCCOC)c(OCCO)cc23)c1,> 120 min

row,Compound,half-life
1,CCOc1ccc(-c2cc(NC(=O)Nc3ccccc3Cl)c(C(=O)OC)s2)cc1,47.8 min
2,COc1ccc(-c2cc3onc(-c4ccncc4)c3c(=O)n2C)cc1,> 120 min
3,CCCCCOC(=O)Nc1nc(=O)n([C@@H]2O[C@H](C)[C@@H](O)[C@H]2O)cc1F,> 120 min
4,Nc1cccc(CNC(=O)c2ccc(Oc3ccc(OCc4cccc(F)c4)cc3)nc2)c1,29.7 min
5,COc1cc(Nc2ncc3c(n2)-c2ccc(Cl)cc2C(c2c(F)cccc2OC)=NC3)ccc1C(=O)O,> 120 min
6,Cn1c(N2CCCCS2(=O)=O)nc(C(=O)NCc2ccc(F)cc2)c(O)c1=O,> 120 min
7,COC(=O)/C=C(\C)OP(=O)(OC)OC,19.9 min
8,CCN(CC)CCNc1ccc(CO)c2sc3ccccc3c(=O)c12,90.3 min
9,CC(C)Cc1ccc(CC(=O)O)cc1,> 120 min
10,O=c1c(N2CCN(c3cccc(Cl)c3)CC2)csc2ccc(Cl)cc12,12.8 min
11,C[C@]12CCC(=O)C=C1[C@@H]1C[C@@H]1[C@H]1[C@@H]3[C@@H]4C[C@@H]4[C@@]4(CCC(=O)O4)[C@@]3(C)CC[C@@H]12,> 120 min
12,COC(=O)C1=C(C)NC(C)=C(C(=O)O[C@@H]2CCCN(Cc3ccccc3)C2)[C@@H]1c1cccc([N+](=O)[O-])c1,1.93 min
13,O=C1NC(=Nc2ccccc2F)S/C1=C\c1ccc(C(=O)O)cc1,52.4 min
14,CCc1nn(CCCN2CCN(c3cccc(Cl)c3)CC2)c(=O)n1CCOc1ccccc1,0.98 min
15,Cc1cc(C(=O)N2CCCCc3ccccc32)ccc1CNC(=O)N1CCC[C@H]1C(=O)N(C)C,6.54 min
16,Cc1ccc(NC(=O)Cn2c(=O)n(CCC(=O)N3CCc4ccccc4C3)c(=O)c3ccccc32)c(C)c1,1.41 min
17,COc1cc2ncnc(Nc3cc(Br)c(O)c(Br)c3)c2cc1OC,> 120 min
18,N[C@@H](Cc1ccc(Oc2cc(I)c(O)c(I)c2)c(I)c1)C(=O)O,> 120 min
19,Cc1ccc(Cl)cc1N1CCN(C(=O)c2cn(C3CCCCC3)c(=O)c3c2c2ccccc2n3C)CC1,0.92 min
20,CCNc1nc(Cl)nc(NCC)n1,59.4 min
21,CCc1ccc(NC(=O)N2CCN(c3nnc(C)c4c(C)n(-c5ccc(Cl)cc5)nc34)CC2)cc1,25.5 min
22,C=CC(=O)Nc1ccc2ncnc(Nc3cccc(Br)c3)c2c1,12.5 min
23,C[C@H]1[C@H](/C=C/c2ccc(-c3ccccc3C#N)cn2)[C@@H]2[C@@H](C)OC(=O)[C@@H]2C[C@@H]1C,15.3 min
24,Cc1cc(C(C)(C)C)c(O)c(C(C)(C)C)c1,> 120 min
25,CNC(=O)[C@H](Cc1ccccc1)NC(=O)[C@H](CC(C)C)[C@H](CSc1cccs1)C(=O)NO,110 min
26,C=C1C(=O)O[C@@H]2[C@H]3O[C@]3(C)CC/C=C(\C)CC[C@@H]12,> 120 min

row,Compound,half-life
1,CN(C)c1nc(Cc2ccc(NC(=O)c3ccc4ccccc4c3)cc2)nc(Cl)c1CC(=O)O,> 120 min
2,C1COC(NC(C2CC2)C2CC2)=N1,> 120 min
3,Cc1nn2c(c1-c1ccccc1Oc1ccccc1)N(Cc1ccc(C(=O)O)cc1)CCC2,6.19 min
4,CCc1ccc(C(=O)C(C)CN2CCCCC2)cc1 (stereo not drawn),4.87 min
5,CNC(=O)c1cc(Oc2ccc(NC(=O)Nc3ccc(Cl)c(C(F)(F)F)c3)cc2)ccn1,> 120 min
6,O=C(CCCCCn1c(=O)c2sccc2n(CC(=O)Nc2cccc(Cl)c2)c1=O)NCc1ccc2c(c1)OCO2,9.36 min
7,COc1ccc(OC)c([C@H](O)[C@H](C)N)c1,> 120 min
8,COc1ccc([C@@H]2Sc3ccccc3NC(=O)[C@@H]2O)cc1,67.5 min
9,CCCCC(=O)OCC(=O)[C@H]1[C@H](C)C[C@H]2[C@@H]3C[C@H](F)C4=CC(=O)C=C[C@]4(C)[C@@]3(F)[C@@H](O)C[C@@]21C,5.18 min
10,Cc1cc(OCc2nnc(SC3CCCC3)n2-c2cccnc2)ccc1-c1ccc(S(C)(=O)=O)cc1,1.66 min
11,COCCCNC(=O)CCC(=O)NNc1nc2ccccc2c2nc(-c3ccccc3)nn12,> 120 min
12,NC(=NCCCCCCN=C(N)/N=C(\N)Nc1ccc(Cl)cc1)/N=C(\N)Nc1ccc(Cl)cc1,> 120 min
13,COc1ccc(Cn2c(SCC(=O)N3CCN(c4ccc(F)cc4)CC3)nc3ccccc32)cc1,2.2 min
14,COc1ccc(C(=O)NC2CCN(c3cnn(CC4CC4)c(=O)c3)CC2)c(OC)n1,> 120 min
15,CCOC(=O)c1ccc(O)cc1,61 min
16,Cc1cccc(N(C)C(=S)Oc2ccc3c(c2)CCC3)c1,1.94 min
17,CN1C(C(=O)Nc2ccccn2)=C(O)c2sccc2S1(=O)=O,> 120 min
18,Cc1ccc(-c2nc3ccc(C)cn3c2CC(=O)N(C)C)cc1,> 120 min
19,C#C[C@]1(O)CC[C@H]2[C@@H]3CCC4=CC(=O)CCC4=C3C=C[C@@]21CC,38.2 min
20,C#CCN(Cc1cc2c(=O)[nH]c(C)nc2cc1Br)c1ccc(C(=O)NCc2cccnc2)cc1,9.7 min
21,O=c1[nH]c2ccc(Cl)cc2c(N[C@@H]2CN3CCC2CC3)c1-c1nc2ccccc2[nH]1,18.8 min
22,CCn1c(-c2nonc2N)nc2c(C#CCO)ncc(OCCCN)c21,> 120 min
23,CC(Cc1cccc(C(F)(F)F)c1)NCCOC(=O)c1ccccc1 (stereo not drawn),0.84 min
24,CCN1CCC[C@H]1CNC(=O)c1c(O)c(Cl)cc(Cl)c1OC,> 120 min
25,COc1ccc(CC(=O)Nc2c(C(=O)N3CCN(c4ccccc4F)CC3)oc3ccccc23)cc1OC,5.26 min
